Patent US9426996B2, “Use of benzoxaboroles as volatile antimicrobial agents on meats, plants, or plant parts” (AgroFresh Inc., priority 2013, dated 2016)

Tests used:
Alternaria alternata = assay: combination treatment with 1-MCP on broccoli; format: in vivo; parameters: scale not given here; details: 11 C.
Botrytis cinerea [1] = assay: in vivo dose by time volatile bioassay using strawberry; details: for Incidence (%) / Severity (0 to 3): strawberries
Description: In order to assess the in vivo dose by time activity of volatile antimicrobial compounds, a volatile bioassay is developed using strawberry. Two fruit are placed inside a 240 mL jar, with the calyx facing downwards. […] Whatman filter paper (Cat. No. 1822-024) is placed inside duplicate jar lids. Compound A (benzoxaborole; FIG. 1) is diluted in acetone, and the appropriate amount of compound is added to the disks at two rates 0.008 or 0.125 mg. The acetone is permitted to evaporate for 5 minutes. The jars are capped with the lids containing the fungicide, and incubated with the volatile fungicide for 1, 3, 6, 24 or 72 hours. After incubation, lids containing the disk with Compound A are replaced with new lids without Compound A. All samples are maintained at 21° C. for 3 days, and then the lids are removed and maintained for an additional 48 hours, all at 90% relative humidity (R.H.). The fruit are evaluated for incidence and severity of disease and appearance of phytotoxicity.

[2] = system: Pectobacterium carotovorum; assay: in vivo volatile assay on potato, onion and carrot cubes; details: 50 mg/L; for Log CFU/mL: 10 C for four days
Description: To test the effect of Compound A at controlling bacterial pathogens of vegetables, potato, onion and carrot are chopped into small cubes and surface sterilized with 0.825% NaOCl and allowed to dry. Four small cubes (approximately […]) of each vegetable are placed in a sterile Petri plate. Each cube is inoculated with 25 μL of Pectobacterium carotovorum (bacterial concentration of OD 1.0, 600 nm). […] No. 1001-042) attached to the inner side of the lid. The acetone is permitted to evaporate for five minutes before closing the plate and sealing it with parafilm. The vegetables are incubated at 10 C for four days.

Botrytis cinerea [3] = assay: white roses with natural inoculum, volatile treatment; format: in vivo; parameters: key to Severity (0-4): 0 = No disease; 1 = Browning and small lesions on the sepals or petals; 2 = Browning, petals covered with fungal spores; 3 = Browning, petals covered with fungal spores, some petal drop; 4 = Browning, petals covered with fungal spores, some flowers aborted
Description: A similar test like the one described above is also performed on white roses with natural inoculum. Five white roses are placed in an 800 mL jar containing 200 mL of a common commercial flower preservative.
Three jars are then placed in a 117 L Rubbermaid storage box (Cat #2244). Two small fans are place in opposite ends of the container to assist with the volatile distribution of compound A. The tub is closed tightly, and then Compound A is diluted in acetone, and then pipetted onto a 1.5 inch×1 inch cotton strip. The acetone is allowed to evaporate for five minutes. Compound A is then introduced to the containers by a sublimation device (copper tube heated to 200° C. with fan flow at 0.5 L/min) to achieve a final headspace concentration of 0.04, 0.2, 1 mg/L, through a ½″ side port that is sealed immediately after the application. Alternatively, Compound A is pipetted onto a 42.5 mm Whatman #1 filter disk (Cat. No. 1001-042), supported by a watch glass, where the acetone is allowed to evaporate for five minutes prior to sealing the container. The flowers are incubated for three days at 21° C. After treatment, flowers are evaluated for an additional two days for disease incidence and severity of the flower petals. Applying a treatment at 1 mg/L through sublimation results in 0% incidence. Rose petals after treatment with Compound A have no disease incidence, retained white color, and the roses had no petal drop.

Botrytis cinerea [4] = assay: white carnations with natural inoculum, fog or passive volatile treatment; format: in vivo; details: 8 days of shelf-life
Description: A similar test like the one described above is also performed on white carnations (treated with or without the commercial anti-ethylene compound silver thiosulfate; STS) with natural inoculum. Compound A is either dissolved in an aqueous 1,2-propylene glycol solution (3:1) and 5 mL of the solution volatilized using an ES-100-H SmartFog system (Reno, Nev.) through a ½″ side port that is sealed immediately after the application, or dissolved in acetone and applied to a 42.5 millimeter (mm) Whatman #1 filter disk (Cat. No. 1001-042), and placed on a watch glass after allowing the acetone to evaporate for 5 minutes. The flowers are incubated for 3 days at 21° C. After storage, the flowers are evaluated for an additional 8 days for disease severity based on the number of lesions present on flower petals and sepals.

[5] = 0.04 mg/L, Applied through sublimation
[6] = 0.04 mg/L, Volatilized from Whatman Filter
[7] = 0.2 mg/L, Applied through sublimation
[8] = 0.2 mg/L, Volatilized from Whatman Filter
[9] = 1 mg/L, Applied through sublimation
[10] = 1 mg/L, Volatilized from Whatman Filter

OB1OCc2cc(F)ccc21 [Compound A]
Color Score (Alternaria alternata; 0.4 mg/L): 1.75
Severity (Alternaria alternata; 0.4 mg/L): 0.00
Color Score (Alternaria alternata; 2 mg/L): 2.11
Severity (Alternaria alternata; 2 mg/L): 0.00
Incidence (%) (Botrytis cinerea [1]; 0.008 mg/disk, Time 3 h): 0%
Severity (0 to 3) (Botrytis cinerea [1]; 0.008 mg/disk, Time 3 h): 0.0
Incidence (%) (Botrytis cinerea [1]; 0.008 mg/disk, Time 6 h): 33%
Severity (0 to 3) (Botrytis cinerea [1]; 0.008 mg/disk, Time 6 h): 1.0
Incidence (%) (Botrytis cinerea [1]; 0.008 mg/disk, Time 24 h): 67%
Severity (0 to 3) (Botrytis cinerea [1]; 0.008 mg/disk, Time 24 h): 2.3
Incidence (%) (Botrytis cinerea [1]; 0.008 mg/disk, Time 72 h): 33%
Severity (0 to 3) (Botrytis cinerea [1]; 0.008 mg/disk, Time 72 h): 1.0
Incidence (%) (Botrytis cinerea [1]; 0.125 mg/disk, Time 1 h): 67%
Severity (0 to 3) (Botrytis cinerea [1]; 0.125 mg/disk, Time 1 h): 2.3
Incidence (%) (Botrytis cinerea [1]; 0.125 mg/disk, Time 3 h): 33%
Severity (0 to 3) (Botrytis cinerea [1]; 0.125 mg/disk, Time 3 h): 1.3
Incidence (%) (Botrytis cinerea [1]; 0.125 mg/disk, Time 6 h): 0%
Severity (0 to 3) (Botrytis cinerea [1]; 0.125 mg/disk, Time 6 h): 0.0
Incidence (%) (Botrytis cinerea [1]; 0.125 mg/disk, Time 24 h): 0%
Severity (0 to 3) (Botrytis cinerea [1]; 0.125 mg/disk, Time 24 h): 0.0
Incidence (%) (Botrytis cinerea [1]; 0.125 mg/disk, Time 72 h): 0%
Severity (0 to 3) (Botrytis cinerea [1]; 0.125 mg/disk, Time 72 h): 0.0
control of Botrytis cinerea (Botrytis cinerea [1]; strawberry, 0.125 mg/disk, after 6 hour exposure): 100%
appearance of phytotoxicity (Botrytis cinerea [1]; strawberry, 0.008 or 0.125 mg): no evidence of phytotoxicity
Log reduction ([2]; Carrot): 0.29 log
Log CFU/mL ([2]; Carrot): 6.06 Log CFU/mL
Log reduction ([2]; Onion): 2.14 log
Log CFU/mL ([2]; Onion): 5.99 Log CFU/mL
Log reduction ([2]; Potato): 0.84 log
Log CFU/mL ([2]; Potato): 6.63 Log CFU/mL
Incidence (%) (Botrytis cinerea [3]; [5]): 46.7%
Severity (0-4) (Botrytis cinerea [3]; [5]): 1.7
Incidence (%) (Botrytis cinerea [3]; [6]): 46.7%
Severity (0-4) (Botrytis cinerea [3]; [6]): 1.1
Incidence (%) (Botrytis cinerea [3]; [7]): 13.3%
Severity (0-4) (Botrytis cinerea [3]; [7]): 0.5
Incidence (%) (Botrytis cinerea [3]; [8]): 66.7%
Severity (0-4) (Botrytis cinerea [3]; [8]): 1.8
Incidence (%) (Botrytis cinerea [3]; [9]): 0%
Severity (0-4) (Botrytis cinerea [3]; [9]): 0
Incidence (%) (Botrytis cinerea [3]; [10]): 53.3%
Severity (0-4) (Botrytis cinerea [3]; [10]): 1.6
Severity (Average Number of Lesions) (Botrytis cinerea [4]; Petals, 0.04 mg/L, Non-STS, Fog): 0.4
Severity (Average Number of Lesions) (Botrytis cinerea [4]; Petals, 0.04 mg/L, Non-STS, Volatile): 3.1
Severity (Average Number of Lesions) (Botrytis cinerea [4]; Petals, 0.04 mg/L, STS, Fog): 0.3
Severity (Average Number of Lesions) (Botrytis cinerea [4]; Petals, 0.04 mg/L, STS, Volatile): 0.5
Severity (Average Number of Lesions) (Botrytis cinerea [4]; Petals, 0.2 mg/L, Non-STS, Fog): 0
Severity (Average Number of Lesions) (Botrytis cinerea [4]; Petals, 0.2 mg/L, Non-STS, Volatile): 1.8
Severity (Average Number of Lesions) (Botrytis cinerea [4]; Petals, 0.2 mg/L, STS, Fog): 0
Severity (Average Number of Lesions) (Botrytis cinerea [4]; Petals, 0.2 mg/L, STS, Volatile): 0.1
Severity (Average Number of Lesions) (Botrytis cinerea [4]; Petals, 1 mg/L, Non-STS, Fog): 0
Severity (Average Number of Lesions) (Botrytis cinerea [4]; Petals, 1 mg/L, Non-STS, Volatile): 1.5
Severity (Average Number of Lesions) (Botrytis cinerea [4]; Petals, 1 mg/L, STS, Fog): 0
Severity (Average Number of Lesions) (Botrytis cinerea [4]; Petals, 1 mg/L, STS, Volatile): 0.1
Severity (Average Number of Lesions) (Botrytis cinerea [4]; Sepals, 0.04 mg/L, Non-STS, Fog): 0.3
Severity (Average Number of Lesions) (Botrytis cinerea [4]; Sepals, 0.04 mg/L, Non-STS, Volatile): 2.1
Severity (Average Number of Lesions) (Botrytis cinerea [4]; Sepals, 0.04 mg/L, STS, Fog): 0.6
Severity (Average Number of Lesions) (Botrytis cinerea [4]; Sepals, 0.04 mg/L, STS, Volatile): 1.1
Severity (Average Number of Lesions) (Botrytis cinerea [4]; Sepals, 0.2 mg/L, Non-STS, Fog): 0.04
Severity (Average Number of Lesions) (Botrytis cinerea [4]; Sepals, 0.2 mg/L, Non-STS, Volatile): 1.6
Severity (Average Number of Lesions) (Botrytis cinerea [4]; Sepals, 0.2 mg/L, STS, Fog): 0.1
Severity (Average Number of Lesions) (Botrytis cinerea [4]; Sepals, 0.2 mg/L, STS, Volatile): 0.3
Severity (Average Number of Lesions) (Botrytis cinerea [4]; Sepals, 1 mg/L, Non-STS, Fog): 0.04
Severity (Average Number of Lesions) (Botrytis cinerea [4]; Sepals, 1 mg/L, Non-STS, Volatile): 1
Severity (Average Number of Lesions) (Botrytis cinerea [4]; Sepals, 1 mg/L, STS, Fog): 0.04
Severity (Average Number of Lesions) (Botrytis cinerea [4]; Sepals, 1 mg/L, STS, Volatile): 0.2
